Experimental data published in ChEMBL document CHEMBL5042533, “Structural Optimization and Structure-Activity Relationship Studies of 6,6-Dimethyl-4-(phenylamino)-6H-pyrimido[5,4-b][1,4]oxazin-7(8H)-one Derivatives as A New Class of Potent Inhibitors of Pan-Trk and Their Drug-Resistant Mutants” (J Med Chem, 2022).
Activity calls are given as the source filed them. No cut-off for these calls is given here.

How the values were obtained:
[1] = Toxicity in NOD-SCID mouse assessed as histological changes in liver at 5 to 20 mg/kg, iv measured after 10 days by H and E staining based microscopic analysis; type: organism-based; details: in vivo, 240 h, dose 5-20 mg/kg, time 10 day
BaF3 [2] = test: Antitumour activity against mouse BaF3 cells expressing TEL fused TrkA allografted in NOD-SCID mouse assessed as reduction in tumor progression at 40 mg/kg/day, po qd measured every 2 or 3 days for 10 days; type: functional, organism-based; details: time 10.0 day
BaF3 [3] = test: cells; details: Mus musculus, BaF3, 72 h
Description: Cytotoxicity against mouse BaF3 cells expressing TEL fused TrkA assessed as inhibition of cell growth incubated for 3 days by CCK-8 assay

BaF3 [4] = test: cells; details: Mus musculus, BaF3, 72 h; remark: listed apart in the source
BaF3 [5] = test: In vivo inhibition of Trk signalling in NOD-SCID mouse allografted with mouse BaF3 cells expressing TEL fused TrkC G623R mutant assessed as reduction in p-Trk level at 5 to 20 mg/kg, iv qd measured after 10 days by IHC staining based analysis; type: functional, organism-based; details: dose 5-20 mg/kg, time 10.0 day
BaF3 [6] = test: cells; details: Mus musculus, BaF3, 72 h; remark: listed apart in the source
in vitro = details: mouse, BaF3 cells
Description: Cytotoxicity against mouse BaF3 assessed as inhibition of cell growth incubated for 3 days by CCK-8 assay

[7] = Toxicity in NOD-SCID mouse assessed as histological changes in kidney at 5 to 20 mg/kg, iv measured after 10 days by H and E staining based microscopic analysis; type: organism-based; details: in vivo, 240 h, dose 5-20 mg/kg, time 10 day
BaF3 [8] = test: Cytotoxicity against mouse BaF3 cells expressing LMNA fused TrkA F589L mutant assessed as inhibition of cell growth incubated for 3 days by CCK-8 assay; type: functional, cell-based; details: BaF3, 72 h
BaF3 [9] = test: In vivo inhibition of Trk signalling in NOD-SCID mouse allografted with mouse BaF3 cells expressing TEL fused TrkC G623R mutant assessed as reduction in p-Akt level at 5 to 20 mg/kg, iv qd measured after 10 days by IHC staining based analysis; type: functional, organism-based; details: dose 5-20 mg/kg, time 10.0 day
BaF3 [10] = test: cells; details: Mus musculus, BaF3, 72 h; remark: listed apart in the source
Description: Cytotoxicity against mouse BaF3 cells expressing CD74 fused TrkA assessed as inhibition of cell growth incubated for 3 days by CCK-8 assay

[11] = Toxicity in NOD-SCID mouse assessed as histological changes in spleen at 5 to 20 mg/kg, iv measured after 10 days by H and E staining based microscopic analysis; type: organism-based; details: in vivo, 240 h, dose 5-20 mg/kg, time 10 day
BaF3 [12] = test: Antitumour activity against larotrectinib-resistant mouse BaF3 cells expressing TEL fused TrkC G623R mutant allografted in NOD-SCID mouse assessed as reduction in tumor growth at 40 mg/kg/day, po qd measured every 2 or 3 days for 10 days; type: functional, organism-based; details: time 10.0 day
[13] = Toxicity in NOD-SCID mouse allografted with mouse BaF3 cells expressing TEL fused TrkA assessed as body weight loss at 40 mg/kg, po qd measured every 2 or 3 days for 10 days; type: organism-based; details: in vivo, 240 h, time 10 day
[14] = Toxicity in NOD-SCID mouse assessed as histological changes in lung at 5 to 20 mg/kg, iv measured after 10 days by H and E staining based microscopic analysis; type: organism-based; details: in vivo, 240 h, dose 5-20 mg/kg, time 10 day
BaF3 [15] = test: cells; details: Mus musculus
Description: Cytotoxicity against mouse BaF3 cells harboring TEL fused TrkC G613R mutant assessed as inhibition of cell growth by MTT assay

[16] = Toxicity in NOD-SCID mouse assessed as histological changes in heart at 5 to 20 mg/kg, iv measured after 10 days by H and E staining based microscopic analysis; type: organism-based; details: in vivo, 240 h, dose 5-20 mg/kg, time 10 day
[17] = Toxicity in NOD-SCID mouse allografted with larotrectinib-resistant mouse BaF3 cells expressing TEL fused TrkC G623R mutant assessed as body weight loss at 40 mg/kg, po qd measured every 2 or 3 days for 10 days; type: organism-based; details: in vivo, 240 h, time 10 day
BaF3 [18] = test: cells; details: Mus musculus, BaF3, 72 h; remark: listed apart in the source
Description: Cytotoxicity against mouse BaF3 cells expressing TEL fused TrkC G623R assessed as inhibition of cell growth incubated for 3 days by CCK-8 assay

BaF3 [19] = test: cells; details: Mus musculus, BaF3, 72 h; remark: listed apart in the source
Description: Cytotoxicity against mouse BaF3 cells expressing LMNA fused TrkA G667S mutant assessed as inhibition of cell growth incubated for 3 days by CCK-8 assay

BaF3 [20] = test: cells; details: Mus musculus, BaF3, 72 h; remark: listed apart in the source
Description: Cytotoxicity against mouse BaF3 cells expressing TEL fused TrkC G696C assessed as inhibition of cell growth incubated for 3 days by CCK-8 assay

BaF3 [21] = test: In vivo inhibition of Trk signalling in NOD-SCID mouse allografted with mouse BaF3 cells expressing TEL fused TrkC G623R mutant assessed as reduction in p-Erk level at 5 to 20 mg/kg, iv qd measured after 10 days by IHC staining based analysis; type: functional, organism-based; details: dose 5-20 mg/kg, time 10.0 day
cells = details: Homo sapiens, KM12-Luc, 72 h
Description: Cytotoxicity against human KM12-Luc cells expressing TPM3 fused TrkA assessed as inhibition of cell growth incubated for 3 days by CCK-8 assay

BaF3 [22] = test: cells; details: Mus musculus, BaF3, 72 h; remark: listed apart in the source
Description: Cytotoxicity against mouse BaF3 cells expressing TEL fused TrkC assessed as inhibition of cell growth incubated for 3 days by CCK-8 assay

IC50 (BaF3 [3]): 0.009 µM | IC50 (BaF3 [4]): 0.109 µM | IC50 (BaF3 [6]): 0.015 µM | IC50 at 3 days (in vitro): > 10 µM | IC50 (BaF3 [10]): 0.001 µM | IC50 (BaF3 [15]): 0.018 µM | IC50 (BaF3 [18]): 0.018 µM | IC50 (BaF3 [19]): 0.03 µM | IC50 (BaF3 [20]): 0.05 µM | IC50 (cells): 0.005 µM | IC50 (BaF3 [22]): 0.004 µM
SMILES: C[C@@H]1CCc2ncc(F)cc2[C@H]2CCCN2c2ccn3ncc(c3n2)C(=O)N1 [SELITRECTINIB]
Activity [1]: Non-Toxic | Activity (BaF3 [2]): Active | inhibition (BaF3 [5]): Active | Activity [7]: Non-Toxic | IC50 (BaF3 [8]): 0.017 µM | inhibition (BaF3 [9]): Active | Activity [11]: Non-Toxic | Activity (BaF3 [12]): Active | Activity [13]: Non-Toxic | Activity [14]: Non-Toxic | Activity [16]: Non-Toxic | Activity [17]: Non-Toxic | inhibition (BaF3 [21]): Active
